pIC50: −log10 of the molar value.
Biological target: T1, Monoglyceride lipase (Homo sapiens, UniProt Q99685)
T1 sequence (Q99685 whole entry): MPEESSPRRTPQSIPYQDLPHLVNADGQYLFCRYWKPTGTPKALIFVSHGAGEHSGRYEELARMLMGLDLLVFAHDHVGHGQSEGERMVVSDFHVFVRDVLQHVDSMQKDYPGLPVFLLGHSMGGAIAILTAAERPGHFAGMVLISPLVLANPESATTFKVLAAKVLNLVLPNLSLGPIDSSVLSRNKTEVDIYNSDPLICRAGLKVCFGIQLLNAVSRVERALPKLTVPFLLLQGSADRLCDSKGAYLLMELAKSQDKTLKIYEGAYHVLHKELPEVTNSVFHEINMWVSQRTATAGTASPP
Assay: Inhibition of MAGL (unknown origin) using 2-AG as substrate incubated for 15 mins followed by substrate addition and measured after 30 mins by mass spectrophotometry

- pIC50: 10.00
Compound: Cc1ccc([C@@H](c2ccccc2)C2CCN(C(=O)N3CC[C@@H]4OCC(=O)N[C@@H]4C3)CC2)cc1
